Experimental data: patent publication US9187472B2 (AbbVie Inc., priority 2012, dated 2015)

Experiments:
[1] = molecular target: NAMPT (human, recombinant, C-terminally His-tagged) (Homo sapiens, UniProt P43490); assay: Time-Resolved Fluorescence Resonance Energy Transfer (TR-FRET) Binding Assay of NAMPT; conditions: without substrates; 6.8 nM NAMPT, 200 nM probe, 3 hours equilibration
Procedure, shortened: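 In a displacement format, the nicotinamide-site tracer at 200 nM competed with test compound for 6.8 nM enzyme detected via 1 nM terbium anti-His antibody; incubation lasted 3 hours at room temperature in 50 mM HEPES pH 7.5, 100 mM NaCl. Normalized 520/495 nm emission ratios gave IC50 values.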

NAMPT = NAMPT (Homo sapiens, UniProt P43490); assay: TR-FRET Binding Assay of NAMPT with PRPP; conditions: with 200 μM PRPP and 2.5 mM ATP; 2 nM NAMPT, 2 nM probe, 16 hours equilibration
Procedure, shortened: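 Substrate-containing variant: 200 μM PRPP plus 2.5 mM ATP are added to 2 nM NAMPT and 2 nM probe, with a 16-hour incubation ahead of TR-FRET reading.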

PC3 cells = assay: NAMPT Cell Proliferation Assay; format: cell-based; conditions: Homo sapiens, PC-3, 120 h, 5 days incubation, cell viability by Cell Titer Glo
Procedure, shortened: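 PC3 cells were plated at 500 cells/well in RPMI with 10% heat-inactivated FBS, left to attach overnight, then given compounds in 10-fold dilutions from 10 μM to 1×10^−5 μM. After 5 days at 37° C and 5% CO2, viability was read by luminescence and IC50s came from sigmoidal fits of percent inhibition.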

NAMPT (human, recombinant, C-terminally His-tagged), sequence (P43490 whole entry): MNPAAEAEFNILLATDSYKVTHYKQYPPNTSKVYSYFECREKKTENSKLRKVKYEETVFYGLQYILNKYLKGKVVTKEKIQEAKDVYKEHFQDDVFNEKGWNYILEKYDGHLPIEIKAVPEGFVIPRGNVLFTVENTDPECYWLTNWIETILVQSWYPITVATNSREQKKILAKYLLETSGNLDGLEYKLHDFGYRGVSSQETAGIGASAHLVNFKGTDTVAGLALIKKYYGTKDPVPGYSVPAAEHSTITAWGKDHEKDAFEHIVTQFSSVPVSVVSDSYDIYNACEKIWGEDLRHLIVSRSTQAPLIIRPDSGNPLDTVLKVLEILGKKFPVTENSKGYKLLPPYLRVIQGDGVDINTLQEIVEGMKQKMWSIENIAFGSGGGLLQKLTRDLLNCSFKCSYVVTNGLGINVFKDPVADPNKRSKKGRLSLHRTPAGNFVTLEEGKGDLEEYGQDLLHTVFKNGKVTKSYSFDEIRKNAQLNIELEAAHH
NAMPT, sequence (P43490 whole entry): as above

Compound | IC50 [1] [nM] | IC50 (NAMPT) [nM] | IC50 (PC3 cells) [nM]
Cn1nccc1-c1ccc(C(=O)NCc2ccn3ccnc3c2)s1 [Example 363, N-(imidazo[1,2-a]pyridin-7-ylmethyl)-5-(1-methyl-1H-pyrazol-5-yl)thiophene-2-carboxamide] | 588 | 0.305 | 7660
O=C(CN1CCOCC1)Nc1ccc(NC(=O)Nc2ccc3nccn3c2)cc1 [Example 41] | 294 | 1.15 | 138
O=C(CC1CCCC1)Nc1ccc(C(=O)NCc2ccn3ncnc3c2)cc1 [Example 546, 4-[(cyclopentylacetyl)amino]-N-([1,2,4]triazolo[1,5-a]pyridin-7-ylmethyl)benzamide] | 237 | 23.2 | 2450
COCC(C)C(=O)N1CC[C@H](Oc2ccc(C(=O)NCc3ccn4ccnc4c3)cc2)C1 (stereo partly drawn) [Example 349, N-(imidazo[1,2-a]pyridin-7-ylmethyl)-4-{[(3S)-1-(3-methoxy-2-methylpropanoyl)pyrrolidin-3-yl]oxy}benzamide] | 4110 | 0.736 | 5510
CC(C)(O)C(=O)N1CCC(Oc2ccc(C(=O)NCc3ccc4nccn4c3)cc2)CC1 [Example 166, 4-{[1-(2-hydroxy-2-methylpropanoyl)piperidin-4-yl]oxy}-N-(imidazo[1,2-a]pyridin-6-ylmethyl)benzamide] | 1430 | 1.81 | 97.1
CC(C)Cn1cc(-c2ccc(C(=O)NCc3ccc4nccn4c3)cc2)cn1 [Example 119, N-(imidazo[1,2-a]pyridin-6-ylmethyl)-4-[1-(2-methylpropyl)-1H-pyrazol-4-yl]benzamide] | 942 | 0.783 | 146
O=C(NCc1ccn2ccnc2c1)c1ccc(C2CCN(C(=O)c3cscn3)C2)cc1 (stereo not drawn) [Example 588, N-(imidazo[1,2-a]pyridin-7-ylmethyl)-4-[1-(1,3-thiazol-4-ylcarbonyl)pyrrolidin-3-yl]benzamide] | 684 | 0.623 | 181
CC(C)(CO)NC(=O)c1ccc(NC(=O)Nc2ccc3nccn3c2)cc1 [Example 6, N-(1-hydroxy-2-methylpropan-2-yl)-4-[(imidazo[1,2-a]pyridin-6-ylcarbamoyl)amino]benzamide] | 2910 | 0.964 | 6650
O=C(NCc1ccn2ccnc2c1)Nc1ccc(C2=CCN(C(=O)CC3CCOCC3)CC2)cc1F [Example 439, 1-{2-fluoro-4-[1-(tetrahydro-2H-pyran-4-ylacetyl)-1,2,3,6-tetrahydropyridin-4-yl]phenyl}-3-(imidazo[1,2-a]pyridin-7-ylmethyl)urea] | 453 | 0.641 | 37.5
CC(C)CC(=O)N(Cc1ccc(C#N)cc1)c1ncc(C(=O)NCc2ccc3nccn3c2)s1 [Example 55, 2-[(4-cyanobenzyl)(3-methylbutanoyl)amino]-N-(imidazo[1,2-a]pyridin-6-ylmethyl)-1,3-thiazole-5-carboxamide] | 364 | 1.37 | 14.6

Stronger by IC50 [1], values ahead:

IC50 [1] [nM] | IC50 (NAMPT) [nM] | IC50 (PC3 cells) [nM] | Compound
155 | 0.286 | 9.33 | O=C(NCc1ccn2ccnc2c1)Nc1ccc(C2CCN(C(=O)[C@H]3CCCO3)CC2)cc1 [Example 289, 1-(imidazo[1,2-a]pyridin-7-ylmethyl)-3-(4-{1-[(2R)-tetrahydrofuran-2-ylcarbonyl]piperidin-4-yl}phenyl)urea]
151 | 0.843 | 10.1 | COc1cccc(C(=O)N2CCC(c3ccc(C(=O)NCc4ccn5ccnc5c4)cc3)C2)c1 (stereo not drawn) [Example 604, N-(imidazo[1,2-a]pyridin-7-ylmethyl)-4-[1-(3-methoxybenzoyl)pyrrolidin-3-yl]benzamide]
143 | 0.256 | 106 | CC(C)Cn1cc(-c2ccc(NC(=O)NCc3ccc4nccn4c3)cc2)cn1 [Example 362, 1-(imidazo[1,2-a]pyridin-6-ylmethyl)-3-{4-[1-(2-methylpropyl)-1H-pyrazol-4-yl]phenyl}urea]
119 | 0.712 | 20.2 | O=C(NCc1ccn2ccnc2c1)c1ccc(C2CCN(C(=O)C(F)(F)c3ccccc3)C2)cc1 (stereo not drawn) [Example 733, 4-{1-[difluoro(phenyl)acetyl]pyrrolidin-3-yl}-N-(imidazo[1,2-a]pyridin-7-ylmethyl)benzamide]
95.7 | 0.47 | 9.63 | O=C(NCc1ccn2ccnc2c1)c1ccc(C2CCN(C(=O)c3cccnc3)C2)s1 (stereo not drawn) [Example 798, N-(imidazo[1,2-a]pyridin-7-ylmethyl)-5-[1-(pyridin-3-ylcarbonyl)pyrrolidin-3-yl]thiophene-2-carboxamide]
79.5 | 0.19 | 9.59 | O=C(NCc1ccn2ccnc2c1)c1ccc(C2CCN(C(=O)c3ccco3)CC2)cc1 [Example 484, 4-[1-(furan-2-ylcarbonyl)piperidin-4-yl]-N-(imidazo[1,2-a]pyridin-7-ylmethyl)benzamide]
78.4 | 0.214 | 22.1 | CC[C@H](C)C(=O)N1CC(O)(c2ccc(C(=O)NCc3ccn4ccnc4c3)s2)C1 [Example 405, 5-{3-hydroxy-1-[(2S)-2-methylbutanoyl]azetidin-3-yl}-N-(imidazo[1,2-a]pyridin-7-ylmethyl)thiophene-2-carboxamide]
76.3 | 0.259 | 2.22 | CC1(Cn2cc(-c3ccc(C(=O)NCc4ccn5ccnc5c4)o3)cn2)COC1 [Example 482, N-(imidazo[1,2-a]pyridin-7-ylmethyl)-5-{1-[(3-methyloxetan-3-yl)methyl]-1H-pyrazol-4-yl}furan-2-carboxamide]
70.1 | 0.403 | 8.13 | CC(C)Cn1cc(-c2ccc(C(=O)NCc3ccn4ccnc4c3)o2)cn1 [Example 740, N-(imidazo[1,2-a]pyridin-7-ylmethyl)-5-[1-(2-methylpropyl)-1H-pyrazol-4-yl]furan-2-carboxamide]
68.8 | 0.437 | 869 | O=C(CCc1ccccc1)Nc1ccc(NC(=O)NCc2ccc3nccn3c2)cc1 [Example 279, N-(4-{[(imidazo[1,2-a]pyridin-6-ylmethyl)carbamoyl]amino}phenyl)-3-phenylpropanamide]
65.3 | 0.286 | 2.78 | Cn1nccc1C(=O)N1CCC(c2ccc(C(=O)NCc3ccn4ccnc4c3)cc2)CC1 [Example 511, N-(imidazo[1,2-a]pyridin-7-ylmethyl)-4-{1-[(1-methyl-1H-pyrazol-5-yl)carbonyl]piperidin-4-yl}benzamide]
61.4 | 0.169 | 28.7 | CS(=O)(=O)CCn1cc(-c2ccc(C(=O)NCc3ccn4ccnc4c3)s2)cn1 [Example 300, N-(imidazo[1,2-a]pyridin-7-ylmethyl)-5-{1-[2-(methylsulfonyl)ethyl]-1H-pyrazol-4-yl}thiophene-2-carboxamide]
23.9 | 0.188 | 1.18 | O=C(NCc1ccn2ccnc2c1)c1ccc(C2CCN(C(=O)c3ccccc3F)CC2)cc1 [Example 513, 4-[1-(2-fluorobenzoyl)piperidin-4-yl]-N-(imidazo[1,2-a]pyridin-7-ylmethyl)benzamide]
